Results from the NIST ThermoML archive (doi:10.1016/j.tca.2018.01.022).
± gives the expanded uncertainty stated by the source.

Conditions: 298 K; 101.33 kPa; Crystal; Buoyancy - hydrostatic balance

SMILES	mass density
[Al] [aluminum]	2656 ± 310 kg/m3
[Mo] [molybdenum]	9999 ± 600 kg/m3
